Source: ChEMBL document CHEMBL1201862, “PubChem BioAssay data set” (2004)
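Grown in 96-well plates, cells were treated for 48 hours with each compound at five concentrations. Insufficient inhibition: endpoint recorded as highest concentration tested. At the GI50, growth is halved.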 The source made the active and inactive calls. No stated cut-off is given here; in the data, active = GI50 up to about 1.1 µM and inactive = higher.

Legend:
Assay in all cases: inhibition of tumour cell growth, NCI panel, 48 h
[1] = system: SW-620
[2] = system: NCI/ADR-RES
[3] = system: MCF7
[4] = system: NCI-H226
[5] = system: MDA-MB-435
[6] = system: ACHN
[7] = system: M14
[8] = system: K562
[9] = system: MDA-N
[10] = system: SK-OV-3
[11] = system: HT-29
[12] = system: NCI-H522
[13] = system: HOP-92
[14] = system: RXF 393
[15] = system: OVCAR-5
[16] = system: SN12C
[17] = system: A498
[18] = system: CAKI-1
[19] = system: HL-60
[20] = system: UO-31
[21] = system: U-251
[22] = system: SF-295
[23] = system: SF-539
[24] = system: SF-268
[25] = system: SNB-75
[26] = system: CCRF-CEM
[27] = system: HOP-62
[28] = system: SK-MEL-28
[29] = system: KM12
[30] = system: Malme-3M
[31] = system: Hs-578T
[32] = system: BT-549
[33] = system: A549
[34] = system: OVCAR-8
[35] = system: EKVX
[36] = system: PC-3
[37] = system: MDA-MB-231
[38] = system: MOLT-4
[39] = system: UACC-62
[40] = system: T47D
[41] = system: UACC-257
[42] = system: SK-MEL-5
[43] = system: RPMI-8226
[44] = system: HCT-15
[45] = system: IGROV-1
[46] = system: SNB-19
[47] = system: OVCAR-4
[48] = system: OVCAR-3
[49] = system: 786-0
[50] = system: SR
[51] = system: NCI-H460
[52] = system: SK-MEL-2
[53] = system: DU-145
[54] = system: COLO 205
[55] = system: HCT-116
[56] = system: NCI-H23
[57] = system: LOX IMVI
[58] = system: TK-10
[59] = system: HCC 2998

## CN1CC=C(c2c(N)nc(N)[nH]c2=O)CC1
[1]
  GI50: > 100 µM (inactive)
[2]
  GI50: > 100 µM (inactive)
[3]
  GI50: > 100 µM (inactive)
[4]
  GI50: > 100 µM (inactive)
[5]
  GI50: > 100 µM (inactive)
[6]
  GI50: > 100 µM (inactive)
[7]
  GI50: > 100 µM (inactive)
[8]
  GI50: > 100 µM (inactive)
[9]
  GI50: > 100 µM (inactive)
[10]
  GI50: > 100 µM (inactive)
[11]
  GI50: > 100 µM (inactive)
[12]
  GI50: > 100 µM (inactive)
[13]
  GI50: > 100 µM (inactive)
[14]
  GI50: > 100 µM (inactive)
[15]
  GI50: > 100 µM (inactive)
[16]
  GI50: > 100 µM (inactive)
[17]
  GI50: > 100 µM (inactive)
[18]
  GI50: > 100 µM (inactive)
[19]
  GI50: > 100 µM (inactive)
[20]
  GI50: > 100 µM (inactive)
[21]
  GI50: > 100 µM (inactive)
[22]
  GI50: > 100 µM (inactive)
[23]
  GI50: > 100 µM (inactive)
[24]
  GI50: > 100 µM (inactive)
[25]
  GI50: 65.6 µM (inactive)
[26]
  GI50: > 100 µM (inactive)
[27]
  GI50: > 100 µM (inactive)
[28]
  GI50: > 100 µM (inactive)
[29]
  GI50: > 100 µM (inactive)
[30]
  GI50: 80.2 µM (inactive)
[31]
  GI50: > 100 µM (inactive)
[32]
  GI50: > 100 µM (inactive)
[33]
  GI50: > 100 µM (inactive)
[34]
  GI50: > 100 µM (inactive)
[35]
  GI50: > 100 µM (inactive)
[36]
  GI50: > 100 µM (inactive)
[37]
  GI50: > 100 µM (inactive)
[38]
  GI50: > 100 µM (inactive)
[39]
  GI50: > 100 µM (inactive)
[40]
  GI50: > 100 µM (inactive)
[41]
  GI50: > 100 µM (inactive)
[42]
  GI50: > 100 µM (inactive)
[43]
  GI50: > 100 µM (inactive)
[44]
  GI50: > 100 µM
[45]
  GI50: > 100 µM (inactive)
[46]
  GI50: > 100 µM (inactive)
[47]
  GI50: > 100 µM (inactive)
[48]
  GI50: > 100 µM (inactive)
[49]
  GI50: > 100 µM (inactive)
[50]
  GI50: > 100 µM (inactive)
[51]
  GI50: > 100 µM (inactive)
[52]
  GI50: > 100 µM (inactive)
[53]
  GI50: > 100 µM (inactive)
[54]
  GI50: > 100 µM (inactive)
[55]
  GI50: > 100 µM (inactive)
[56]
  GI50: > 100 µM (inactive)

## C#CCOC(=O)[C@@H](C)c1ccc2cc(OC)ccc2c1
[1]
  GI50: > 100 µM (inactive)
[2]
  GI50: 68.2 µM (inactive)
[3]
  GI50: 63.8 µM (inactive)
[4]
  GI50: > 100 µM (inactive)
[5]
  GI50: 66.4 µM (inactive)
[6]
  GI50: > 100 µM (inactive)
[7]
  GI50: > 100 µM (inactive)
[8]
  GI50: 44.8 µM (inactive)
[9]
  GI50: > 100 µM (inactive)
[10]
  GI50: > 100 µM (inactive)
[12]
  GI50: 40.2 µM (inactive)
[13]
  GI50: 79.6 µM (inactive)
[14]
  GI50: 86.5 µM (inactive)
[15]
  GI50: > 100 µM (inactive)
[16]
  GI50: > 100 µM (inactive)
[17]
  GI50: > 100 µM (inactive)
[18]
  GI50: > 100 µM (inactive)
[19]
  GI50: 15.1 µM (inactive)
[20]
  GI50: 94 µM (inactive)
[21]
  GI50: > 100 µM (inactive)
[22]
  GI50: > 100 µM (inactive)
[23]
  GI50: 76.9 µM (inactive)
[24]
  GI50: > 100 µM (inactive)
[25]
  GI50: 34.3 µM (inactive)
[26]
  GI50: 31.1 µM (inactive)
[27]
  GI50: > 100 µM (inactive)
[29]
  GI50: > 100 µM (inactive)
[31]
  GI50: > 100 µM (inactive)
[32]
  GI50: 54.5 µM (inactive)
[34]
  GI50: > 100 µM (inactive)
[35]
  GI50: 66.2 µM (inactive)
[36]
  GI50: 82.6 µM (inactive)
[37]
  GI50: > 100 µM (inactive)
[38]
  GI50: 32.1 µM (inactive)
[39]
  GI50: > 100 µM (inactive)
[40]
  GI50: > 100 µM (inactive)
[41]
  GI50: 96.2 µM (inactive)
[42]
  GI50: 40.9 µM (inactive)
[43]
  GI50: 29.5 µM (inactive)
[57]
  GI50: 70.1 µM (inactive)
[44]
  GI50: 28.4 µM
[45]
  GI50: > 100 µM (inactive)
[58]
  GI50: > 100 µM (inactive)
[46]
  GI50: > 100 µM (inactive)
[47]
  GI50: 96.8 µM (inactive)
[49]
  GI50: 71.9 µM (inactive)
[50]
  GI50: 17.3 µM (inactive)
[51]
  GI50: > 100 µM (inactive)
[52]
  GI50: > 100 µM (inactive)
[53]
  GI50: > 100 µM (inactive)
[54]
  GI50: > 100 µM (inactive)
[55]
  GI50: > 100 µM (inactive)
[56]
  GI50: 63.5 µM (inactive)

## CCCCCC(=O)OCC1(CO)C/C(=C\CC(C(C)C)C(C)C)C(=O)O1 (stereo not given)
[1]
  GI50: 24.4 µM (inactive)
[2]
  GI50: 87.5 µM (inactive)
[3]
  GI50: 78.7 µM (inactive)
[4]
  GI50: 65.5 µM (inactive)
[5]
  GI50: > 100 µM (inactive)
[6]
  GI50: > 100 µM (inactive)
[7]
  GI50: > 100 µM (inactive)
[8]
  GI50: 24.1 µM (inactive)
[9]
  GI50: > 100 µM (inactive)
[10]
  GI50: > 100 µM (inactive)
[11]
  GI50: 30.7 µM (inactive)
[12]
  GI50: 21.9 µM (inactive)
[13]
  GI50: 93.3 µM (inactive)
[14]
  GI50: > 100 µM (inactive)
[15]
  GI50: > 100 µM (inactive)
[16]
  GI50: 31.6 µM (inactive)
[17]
  GI50: 86.1 µM (inactive)
[18]
  GI50: 83.6 µM (inactive)
[20]
  GI50: > 100 µM (inactive)
[21]
  GI50: 25.1 µM (inactive)
[22]
  GI50: 25.9 µM (inactive)
[24]
  GI50: > 100 µM (inactive)
[25]
  GI50: 44.4 µM (inactive)
[26]
  GI50: 26.4 µM (inactive)
[27]
  GI50: 39 µM (inactive)
[28]
  GI50: 59.3 µM (inactive)
[29]
  GI50: 39.6 µM (inactive)
[30]
  GI50: 15.3 µM (inactive)
[31]
  GI50: 24.5 µM (inactive)
[32]
  GI50: > 100 µM (inactive)
[33]
  GI50: 76.9 µM (inactive)
[34]
  GI50: 38.1 µM (inactive)
[35]
  GI50: > 100 µM (inactive)
[59]
  GI50: > 100 µM (inactive)
[36]
  GI50: > 100 µM (inactive)
[37]
  GI50: > 100 µM (inactive)
[38]
  GI50: 17.9 µM (inactive)
[39]
  GI50: > 100 µM (inactive)
[40]
  GI50: > 100 µM (inactive)
[41]
  GI50: > 100 µM (inactive)
[42]
  GI50: 38.4 µM (inactive)
[57]
  GI50: 27 µM (inactive)
[44]
  GI50: 75.2 µM
[45]
  GI50: 65.8 µM (inactive)
[58]
  GI50: > 100 µM (inactive)
[46]
  GI50: > 100 µM (inactive)
[47]
  GI50: > 100 µM (inactive)
[48]
  GI50: > 100 µM (inactive)
[49]
  GI50: 31.9 µM (inactive)
[50]
  GI50: 27.2 µM (inactive)
[51]
  GI50: 42.3 µM (inactive)
[52]
  GI50: > 100 µM (inactive)
[53]
  GI50: > 100 µM (inactive)
[54]
  GI50: 17.9 µM (inactive)
[55]
  GI50: 45.7 µM (inactive)
[56]
  GI50: > 100 µM (inactive)
